Test results taken from the NIST ThermoML archive (doi:10.1016/j.jct.2018.08.036).

What was measured:
[1] = refractive index (Na D-line) (dimensionless); xn = mol fraction of the nth substance listed; settings: 100 kPa, Liquid, Standard Abbe refractometry
[2] = xn = mol fraction of the nth substance listed; settings: 100 kPa, Liquid; for viscosity: Falling or rolling sphere viscometry; for speed of sound: Frequency=3 MHz, Single path-length method; for mass density: Vibrating tube method

CCC(C)c1ccccc1 (centres undefined) [(1-methylpropyl)benzene] + CCCCCCCCCCCCCCCC
Settings | mass density, [2] [kg/m3] | refractive index, [1] | speed of sound, [2] [m/s] | viscosity, [2] [mPa·s]
298.15 K, x2 = 0 | 857.89 | 1.4876 | 1313.8 | 0.912
298.15 K, x2 = 0.0702 | 846.08 | 1.4801 | 1312 | 1.004
298.15 K, x2 = 0.1382 | 836.12 | 1.4738 | 1311.4 | 1.112
298.15 K, x2 = 0.2541 | 821.7 | 1.4647 | 1312.4 | 1.33
298.15 K, x2 = 0.3113 | 815.5 | 1.4608 | 1313.7 | 1.449
298.15 K, x2 = 0.4028 | 806.76 | 1.4553 | 1316.1 | 1.644
298.15 K, x2 = 0.4757 | 800.6 | 1.4515 | 1318.4 | 1.793
298.15 K, x2 = 0.5349 | 796.04 | 1.4486 | 1320.7 | 1.924
298.15 K, x2 = 0.6167 | 790.37 | 1.4451 | 1323.2 | 2.101
298.15 K, x2 = 0.7476 | 782.25 | 1.4401 | 1328.3 | 2.387
298.15 K, x2 = 0.832 | 777.71 | 1.4373 | 1331.6 | 2.587
308.15 K, x2 = 0 | 849.78 | 1.4827 | 1274.5 | 0.796
308.15 K, x2 = 0.0702 | 838.16 | 1.4753 | 1273.2 | 0.874
308.15 K, x2 = 0.1382 | 828.35 | 1.469 | 1273.1 | 0.954
308.15 K, x2 = 0.2541 | 814.15 | 1.46 | 1274.7 | 1.128
308.15 K, x2 = 0.3113 | 808.04 | 1.4562 | 1276.1 | 1.223
308.15 K, x2 = 0.4028 | 799.42 | 1.4508 | 1278.8 | 1.375
308.15 K, x2 = 0.4757 | 793.34 | 1.447 | 1281.2 | 1.493
308.15 K, x2 = 0.5349 | 788.84 | 1.4441 | 1283.5 | 1.592
308.15 K, x2 = 0.6167 | 783.24 | 1.4407 | 1286.2 | 1.734
308.15 K, x2 = 0.7476 | 775.3 | 1.4358 | 1291.7 | 1.95
308.15 K, x2 = 0.832 | 770.73 | 1.433 | 1294.6 | 2.099
318.15 K, x2 = 0 | 841.64 | 1.4778 | 1235.7 | 0.707
318.15 K, x2 = 0.0702 | 830.21 | 1.4704 | 1235 | 0.771
318.15 K, x2 = 0.1382 | 820.55 | 1.4642 | 1235.3 | 0.838
318.15 K, x2 = 0.2541 | 806.57 | 1.4553 | 1237.4 | 0.975
318.15 K, x2 = 0.3113 | 800.55 | 1.4516 | 1239 | 1.05
318.15 K, x2 = 0.4028 | 792.05 | 1.4462 | 1241.9 | 1.174
318.15 K, x2 = 0.4757 | 786.06 | 1.4425 | 1244.5 | 1.275
318.15 K, x2 = 0.5349 | 781.7 | 1.4398 | 1246.8 | 1.356
318.15 K, x2 = 0.6167 | 776.09 | 1.4364 | 1249.7 | 1.468
318.15 K, x2 = 0.7476 | 768.18 | 1.4315 | 1254.5 | 1.642
318.15 K, x2 = 0.832 | 763.74 | 1.4288 | 1258.2 | 1.762

CCCc1ccccc1 [propylbenzene] + CCCCCCCCCCCCCCCC
Settings | mass density, [2] [kg/m3] | refractive index, [1] | speed of sound, [2] [m/s] | viscosity, [2] [mPa·s]
298.15 K, x2 = 0 | 858.45 | 1.4896 | 1320.6 | 0.792
298.15 K, x2 = 0.0627 | 846.52 | 1.4817 | 1317.3 | 0.872
298.15 K, x2 = 0.1009 | 840.12 | 1.4775 | 1315.7 | 0.928
298.15 K, x2 = 0.207 | 825.01 | 1.4677 | 1314.8 | 1.092
298.15 K, x2 = 0.3093 | 813.2 | 1.4602 | 1315.7 | 1.269
298.15 K, x2 = 0.3863 | 805.79 | 1.4554 | 1317.7 | 1.408
298.15 K, x2 = 0.5055 | 796.08 | 1.4492 | 1320.9 | 1.654
298.15 K, x2 = 0.5603 | 792.22 | 1.4467 | 1322.7 | 1.776
298.15 K, x2 = 0.7042 | 783.32 | 1.441 | 1327.7 | 2.114
298.15 K, x2 = 0.7728 | 779.76 | 1.4387 | 1330 | 2.291
298.15 K, x2 = 0.8468 | 776.25 | 1.4365 | 1332.8 | 2.505
308.15 K, x2 = 0 | 850.01 | 1.4844 | 1280.6 | 0.699
308.15 K, x2 = 0.0627 | 838.3 | 1.4766 | 1277.8 | 0.766
308.15 K, x2 = 0.1009 | 832.03 | 1.4724 | 1276.8 | 0.813
308.15 K, x2 = 0.207 | 817.19 | 1.4628 | 1276.4 | 0.949
308.15 K, x2 = 0.3093 | 805.67 | 1.4554 | 1277.9 | 1.09
308.15 K, x2 = 0.3863 | 798.39 | 1.4509 | 1279.9 | 1.203
308.15 K, x2 = 0.5055 | 788.78 | 1.4448 | 1283.6 | 1.396
308.15 K, x2 = 0.5603 | 784.97 | 1.4424 | 1285.4 | 1.495
308.15 K, x2 = 0.7042 | 776.34 | 1.4368 | 1290.5 | 1.761
308.15 K, x2 = 0.7728 | 772.78 | 1.4346 | 1292.9 | 1.886
308.15 K, x2 = 0.8468 | 769.24 | 1.4323 | 1295.7 | 2.05
318.15 K, x2 = 0 | 841.53 | 1.4792 | 1241 | 0.626
318.15 K, x2 = 0.0627 | 830.05 | 1.4713 | 1238.8 | 0.683
318.15 K, x2 = 0.1009 | 823.89 | 1.4673 | 1238.2 | 0.722
318.15 K, x2 = 0.207 | 809.33 | 1.4578 | 1238.5 | 0.835
318.15 K, x2 = 0.3093 | 798.09 | 1.4506 | 1240.4 | 0.952
318.15 K, x2 = 0.3863 | 790.87 | 1.4461 | 1242.7 | 1.044
318.15 K, x2 = 0.5055 | 781.4 | 1.4402 | 1246.6 | 1.2
318.15 K, x2 = 0.5603 | 777.68 | 1.4378 | 1248.6 | 1.28
318.15 K, x2 = 0.7042 | 769.05 | 1.4324 | 1253.6 | 1.485
318.15 K, x2 = 0.7728 | 765.61 | 1.4302 | 1256.2 | 1.585
318.15 K, x2 = 0.8468 | 762.23 | 1.428 | 1258.9 | 1.713
